Experimental data from patent US20160237067A1, “SUBSTITUTED PHENYLALANINE DERIVATIVES” (BAYER PHARMA AKTIENGESELLSCHAFT, priority 2013, published 2016).
pIC50: −log10 of the molar value. Counter-ions that a name gives are not always drawn.

Legend:
human and animal plasma = experiment: Determination of anticoagulatory activity: activated partial thromboplastin time (aPTT) in plasma; type: biochemical; settings: C.K. Prest kit, 37° C., 3 minutes incubation, plasma species of Table B not stated
Method: The anticoagulatory activity of the test substances is determined in vitro in human and animal plasma (for example mouse, rat, rabbit, pig and dog plasma). To this end, blood is drawn off in a mixing ratio of sodium citrate/blood of 1:9 using a 0.11 molar sodium citrate solution as receiver. Immediately after the blood has been drawn off, it is mixed thoroughly and centrifuged at about 4000 g for 15 minutes. The supernatant is pipetted off.
The activated partial thromboplastin time (aPTT) is determined in the presence of varying concentrations of test substance or the corresponding solvent using a commercial test kit (C.K. Prest from Diagnostica Stago). The test compounds are incubated with the plasma and the PTT reagent (cephalin, kaolin) at 37° C. for 3 minutes. Coagulation is then started by addition of a 25 mM aqueous calcium chloride solution, and the time when coagulation occurs is determined. The concentration of test substance which brings about a 1.5-fold extension of the aPTT is determined Activity data from this test are listed in Table B below: […]

human factor XIa = target: T1, human factor XIa (Homo sapiens, UniProt P03951); experiment: Measurement of FXIa inhibition (fluorogenic peptide substrate Boc-Glu(OBzl)-Ala-Arg-AMC); type: biochemical; settings: factor XIa from Kordia 0.45 nM; 15 min preincubation; 30 min at 22° C.
T1 construct: purchased Kordia
T1 sequence (P03951 388-625 limits assumed): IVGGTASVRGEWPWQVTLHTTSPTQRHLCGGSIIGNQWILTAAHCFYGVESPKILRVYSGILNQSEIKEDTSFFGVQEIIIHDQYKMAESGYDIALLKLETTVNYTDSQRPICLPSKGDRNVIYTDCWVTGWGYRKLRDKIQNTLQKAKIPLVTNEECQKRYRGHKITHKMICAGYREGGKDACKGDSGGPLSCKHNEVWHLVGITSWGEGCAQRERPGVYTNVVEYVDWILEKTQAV
T1 sequence (P03951 19-387 partner limits assumed): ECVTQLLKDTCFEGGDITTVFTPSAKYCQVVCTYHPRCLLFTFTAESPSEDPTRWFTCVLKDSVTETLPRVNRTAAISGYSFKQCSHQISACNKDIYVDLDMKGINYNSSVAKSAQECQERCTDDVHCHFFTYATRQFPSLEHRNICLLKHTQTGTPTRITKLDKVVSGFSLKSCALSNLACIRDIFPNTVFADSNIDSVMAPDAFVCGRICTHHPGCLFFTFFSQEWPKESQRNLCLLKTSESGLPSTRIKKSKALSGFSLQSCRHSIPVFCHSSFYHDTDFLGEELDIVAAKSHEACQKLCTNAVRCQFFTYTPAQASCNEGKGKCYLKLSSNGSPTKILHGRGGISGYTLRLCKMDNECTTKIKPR
Method: The factor XIa inhibition of the substances according to the invention is determined using a biochemical test system which utilizes the reaction of a peptidic factor XIa substrate to determine the enzymatic activity of human factor XIa. Here, factor XIa cleaves from the peptic factor XIa substrate the C-terminal aminomethylcoumarin (AMC), the fluorescence of which is measured. The determinations are carried out in microtitre plates.
Test substances are dissolved in dimethyl sulphoxide and serially diluted in dimethyl sulphoxide (3000 μM to 0.0078 μM; resulting final concentrations in the test: 50 μM to 0.00013 μM). In each case 1 μl of the diluted substance solutions is placed into the wells of white microtitre plates from Greiner (384 wells). Subsequently, the following are added successively: 20 μl of assay buffer (50 mmol/l Tris buffer pH 7.4; 100 mmol/l sodium chloride; 5 mmol/l calcium chloride; 0.1% bovine serum albumin) and 20 μl of factor XIa from Kordia (0.45 nM in assay buffer). After 15 min of incubation, the enzyme reaction is started by addition of 20 μl of the factor XIa substrate Boc-Glu(OBzl)-Ala-Arg-AMC dissolved in assay buffer (10 μM in assay buffer) from Bachem, the mixture is incubated at room temperature (22° C.) for 30 min and fluorescence is then measured (excitation: 360 nm, emission: 460 nm). The measured emissions of the test batches with test substance are compared to those of control batches without test substance (only dimethyl sulphoxide instead of test substance in dimethyl sulphoxide), and IC50 values are calculated from the concentration/activity relationships.

Row | pIC50 (human factor XIa) | SMILES | aPTT (concentration of test substance which brings about a 1.5-fold extension of the aPTT) (human and animal plasma) [µmol/L]
1 | 8.35 | Cc1c(F)cc(C(=O)NC2CCNCC2)cc1-c1ccc(C[C@H](NC(=O)[C@H]2CC[C@H](CN)CC2)C(=O)Nc2ccc(-c3nn[nH]n3)cc2)cc1 [Example 31, 4′-[(2S)-2-({[trans-4-(Aminomethyl)cyclohexyl]carbonyl}amino)-3-oxo-3-{[4-(2H-tetrazol-5-yl)phenyl]amino}propyl]-5-fluoro-6-methyl-N-(piperidin-4-yl)biphenyl-3-carboxamide hydrochloride] | 0.16
2 | 8.33 | Cc1ccc(C(=O)N[C@H]2CC[C@H](O)CC2)cc1-c1ccc(C[C@H](NC(=O)[C@H]2CC[C@H](CN)CC2)C(=O)Nc2ccc(-c3nn[nH]n3)cc2)cc1 [Example 32, 4′-[(2S)-2-({[trans-4-(Aminomethyl)cyclohexyl]carbonyl}amino)-3-oxo-3-{[4-(2H-tetrazol-5-yl)phenyl]amino}propyl]-N-(trans-4-hydroxycyclohexyl)-6-methylbiphenyl-3-carboxamide hydrochloride] | 0.15
3 | 8.39 | Cc1cc(C(=O)NC2CCN(C)CC2)cc(-c2ccc(C[C@H](NC(=O)[C@H]3CC[C@H](CN)CC3)C(=O)Nc3ccc(-c4nn[nH]n4)cc3)cc2)c1C [Example 34, 4′-[(2S)-2-({[trans-4-(Aminomethyl)cyclohexyl]carbonyl}amino)-3-oxo-3-{[4-(2H-tetrazol-5-yl)phenyl]amino}propyl]-5,6-dimethyl-N-(1-methylpiperidin-4-yl)biphenyl-3-carboxamide hydrochloride] | 0.06
4 | 8.12 | Cc1cc(C(=O)NC2CCC(N(C)C)CC2)cc(-c2ccc(C[C@H](NC(=O)[C@H]3CC[C@H](CN)CC3)C(=O)Nc3ccc(-c4nn[nH]n4)cc3)cc2)c1 (stereo partly drawn) [Example 37, 4′-[(2S)-24 {[trans-4-(Aminomethyl)cyclohexyl]carbonyl}amino)-3-oxo-3-{[4-(2H-tetrazol-5-yl)phenyl]amino}propyl]-N-[4-(dimethylamino)cyclohexyl]-5-methylbiphenyl-3-carboxamide hydrochloride] | 0.14
5 | 8.39 | Cc1cc(C(=O)NC2CCNCC2)cc(-c2ccc(C[C@H](NC(=O)[C@H]3CC[C@H](CN)CC3)C(=O)Nc3ccc(-c4nn[nH]n4)cc3)cc2)c1 [Example 40, 4′-[(2S)-2-({[trans-4-(Aminomethyl)cyclohexyl]carbonyl}amino)-3-oxo-3-{[4-(2H-tetrazol-5-yl)phenyl]amino}propyl]-5-methyl-N-(piperidin-4-yl)biphenyl-3-carboxamide hydrochloride] | 0.06

Continued, compound first:

Row | SMILES | pIC50 (human factor XIa) | aPTT (concentration of test substance which brings about a 1.5-fold extension of the aPTT) (human and animal plasma) [µmol/L]
6 | Cc1ccc(-c2ccc(C[C@H](NC(=O)[C@H]3CC[C@H](CN)CC3)C(=O)Nc3ccc(-c4nn[nH]n4)cc3)cc2)cc1NC(=O)C1CCOCC1 [Example 29, N-{4′-[(2S)-2-({[trans-4-(Aminomethyl)cyclohexyl]carbonyl}amino)-3-oxo-3-{[4-(2H-tetrazol-5-yl)phenyl]amino}propyl]-4-methylbiphenyl-3-yl}tetrahydro-2H-pyran-4-carboxamide hydrochloride] | 7.96 | 0.3
7 | Cc1c(F)cc(C(=O)NC(C)C)cc1-c1ccc(C[C@H](NC(=O)[C@H]2CC[C@H](CN)CC2)C(=O)Nc2ccc(-c3nn[nH]n3)cc2)cc1 [Example 30, 4′-[(2S)-2-({[trans-4-(Aminomethyl)cyclohexyl]carbonyl}amino)-3-oxo-3-{[4-(2H-tetrazol-5-yl)phenyl]amino}propyl]-5-fluoro-N-isopropyl-6-methylbiphenyl-3-carboxamide hydrochloride] | 8.57 | 0.2
8 | Cc1ccc(C(=O)N2CCOCC2)cc1-c1ccc(C[C@H](NC(=O)[C@H]2CC[C@H](CN)CC2)C(=O)Nc2ccc(-c3nn[nH]n3)cc2)cc1 [Example 33, trans-4-(Aminomethyl)-N-[(2S)-3-[2′-methyl-5′-(morpholin-4-ylcarbonyl)biphenyl-4-yl]-1-oxo-1-{[4-(2H-tetrazol-5-yl)phenyl]amino}propan-2-yl]cyclohexanecarboxamide hydrochloride] | 8.27 | 0.18
9 | NC[C@H]1CC[C@H](C(=O)N[C@@H](Cc2ccc(-c3ccc(F)c(C(=O)NC4CCNCC4)c3)cc2)C(=O)Nc2ccc(-c3nn[nH]n3)cc2)CC1 [Example 35, 4′-[(2S)-2-({[trans-4-(Aminomethyl)cyclohexyl]carbonyl}amino)-3-oxo-3-{[4-(2H-tetrazol-5-yl)phenyl]amino}propyl]-4-fluoro-N-(piperidin-4-yl)biphenyl-3-carboxamide hydrochloride] | 8.00 | 0.2
10 | Cc1ccc(C(=O)NC2CCNC(=O)C2)cc1-c1ccc(C[C@H](NC(=O)[C@H]2CC[C@H](CN)CC2)C(=O)Nc2ccc(-c3nn[nH]n3)cc2)cc1 (stereo partly drawn) [Example 36, 4′-[(2S)-2-({[trans-4-(Aminomethyl)cyclohexyl]carbonyl}amino)-3-oxo-3-{[4-(2H-tetrazol-5-yl)phenyl]amino}propyl]-6-methyl-N-(2-oxopiperidin-4-yl)biphenyl-3-carboxamide hydrochloride] | 8.72 | 0.14
11 | Cc1ccc(-c2ccc(C[C@H](NC(=O)[C@H]3CC[C@H](CN)CC3)C(=O)Nc3ccc(-c4nn[nH]n4)cc3)cc2)cc1C(=O)N1CCOCC1 [Example 38, trans-4-(Aminomethyl)-N-[(2S)-3-[4′-methyl-3′-(morpholin-4-ylcarbonyl)biphenyl-4-yl]-1-oxo-1-{[4-(2H-tetrazol-5-yl)phenyl]amino}propan-2-yl]cyclohexanecarboxamide hydrochloride] | 8.39 | 0.22
12 | Cc1ccc(C(=O)NC2CCN(C)CC2)cc1-c1ccc(C[C@H](NC(=O)[C@H]2CC[C@H](CN)CC2)C(=O)Nc2ccc(-c3nc(C(F)(F)C(F)(F)C(=O)O)n[nH]3)cc2)cc1 [Example 42, 3-[5-(4-{[(2S)-2-({[trans-4-(Aminomethyl)cyclohexyl]carbonyl}amino)-3-{2′-methyl-5′-[(1-methylpiperidin-4-yl)carbamoyl]biphenyl-4-yl}propanoyl]amino}phenyl)-1H-1,2,4-triazol-3-yl]-2,2,3,3-tetrafluoropropanoic acid hydrochloride] | 8.17 | 0.16
13 | Cc1ccc(C(=O)NC(C)C)cc1-c1ccc(C[C@H](NC(=O)[C@H]2CC[C@H](CN)CC2)C(=O)Nc2ccc(-c3nc(CCC(=O)O)n[nH]3)cc2)cc1 [Example 43, 3-{5-[4-({(2S)-2-({[trans-4-(Aminomethyl)cyclohexyl]carbonyl}amino)-3-[5′-(isopropylcarbamoyl)-2′-methylbiphenyl-4-yl]propanoyl}amino)phenyl]-1H-1,2,4-triazol-3-yl}propanoic acid hydrochloride] | 8.01 | 0.38
14 | COc1ccc(-c2ccc(C[C@H](NC(=O)[C@H]3CC[C@H](CN)CC3)C(=O)Nc3ccc(-c4nc(C(F)(F)C(F)(F)C(=O)O)n[nH]4)cc3)cc2)cc1S(=O)(=O)N1CCOCC1 [Example 44, 3-{5-[4-({(2S)-2-({[trans-4-(Aminomethyl)cyclohexyl]carbonyl}amino)-3-[4′-methoxy-3′-(morpholin-4-ylsulphonyl)biphenyl-4-yl]propanoyl}amino)phenyl]-1H-1,2,4-triazol-3-yl}-2,2,3,3-tetrafluoropropanoic acid hydrochloride] | 8.66 | 0.2
